One data set concerns the target McpP. Also on record: method as in ref (6) (a number printed in a supplementary file, which may have a reference list of its own: not looked up in the article's list). The note with it: ITC, purified recombinant LBD; ref (6); cited from earlier work. In general terms: ITC needs no label: the signal is the heat of the interaction.
In the next data set the target is McpS. The arrangement: method as in ref (7-9) (a number printed in a supplementary file, which may have a reference list of its own: not looked up in the article's list). Conditions: ITC, purified recombinant LBD; ref (7-9); cited from earlier work.
Another data set has as its system P. putida KT2440. As to the kind of experiment: Growth in M9 minimal medium with ligand as sole C-source. The class given is cell-based, Pseudomonas putida KT2440. The note with it: 10 mM (2 mM for poorly soluble) ligand. On the procedure:
P. putida KT2440R was grown in the same medium supplemented with rifampicin (10 μg ml^-1). […] When necessary, the pH of the medium was adjusted to 7.0 prior to inoculation. Bacterial growth rates were monitored by measuring the OD660 until cultures reached the stationary phase. The growth rate during the exponential growth (m) was calculated according to m = (LnOD2-LnOD1).(t2-t1)^-1, where OD2/t2 and OD1/t1 correspond to the OD660/time at the end and the beginning of the time interval. The generation time (G) was defined by G = Ln2 μ^-1. […] Normalized growth yield per carbon source after 24 h was determined applying correlation factors between cell dry weight and OD660 determined in batch cultures and assuming that all the carbon source was consumed during growth. Data were fitted by linear least squares regression or submitted to the chi-squared test with Yates correction using in both cases the Graph Pad Prism v7.02 software.

The target of data set [1] is T1, PcaY_PP-LBD (Pseudomonas putida, UniProt Q88JK6).
T1 construct: His-tag (from the pET28b vector; inferred from NdeI/BamHI cloning and HisTrap purification) (N); made in house; host or cells: Escherichia coli BL21 (DE3)
As to the kind of experiment: biochemical. The class given is binding, Pseudomonas putida KT2440. The note with it: for ∆G / ∆H: ITC. On the procedure:
Experiments were carried out at 25°C using a VP-ITC titration calorimeter (Microcal Inc., Northampton, Massachusetts). […] Obtained data were corrected with the heat changes measured for the injection of ligand into buffer. Data were normalized with the protein concentration (Bradford assay) and fitted with the “One Binding Site” model of the MicroCal version of the ORIGIN 7.0 software (OriginLab Corporation, Northampton, MA, United States), leaving all parameters floating.

For data set [2], the target named is T1, PcaY_PP-LBD. Also on record: species or system Pseudomonas putida KT2440. The note with it: saturating ligand (400 μM), 10°C. On the procedure: Experiments were performed in a Beckman Coulter Optima XL-A analytical ultracentrifuge (Beckman-Coulter, Palo Alto, CA, United States) equipped with UV-visible absorbance detection system, using an An50Ti 8-hole rotor, 12 mm path-length charcoal-filled epon double-sector centerpieces. The sedimentation velocity (SV) experiments were carried out at a rotor speed of 40,000 rpm and 10°C using 400 μl samples in analysis buffer. […] Analysis buffer with or without ligands was used as reference. […] A least squares boundary modeling of the SV data was used to calculate sedimentation coefficient distributions with the size-distribution c(s) method ([Schuck, 2000]) implemented in the SEDFIT v11.71 software. […] The multi-speed sedimentation equilibrium experiments were carried out at 10°C and 12,000, 14,000, and 18,000 rpm until equilibrium was reached. […] Generally two wavelengths were used per sample.

In data set [3] the test system is Pseudomonas putida KT2440. In words: Quantitative capillary chemotaxis assay. The class given is cell-based. The note with it: 30 min, wild type KT2440. On the procedure: Subsequently, the cells were re-suspended in the same buffer, adjusted to an OD660 of 0.15 and 230 μl aliquots of this bacterial culture were placed into 96-well plates. For the quantitative assays, one-microliter capillary tubes (Microcaps, Drummond Scientific, Ref. […]) were heat-sealed at one end and filled with either the chemotaxis buffer (negative control) or chemotaxis buffer containing the chemoeffector. The capillaries were immersed into the bacterial suspension and incubated for 30 min at room temperature. Capillaries were subsequently removed from the bacterial suspension, rinsed with sterile water and the content expelled into 1 ml of M9 medium. Serial dilutions were plated onto LB medium (containing the appropriate antibiotics) and the number of colony forming units was determined. In all cases, data were corrected with the number of cells that swam into buffer containing capillaries.

In a further data set the test system is Tar-LBD. Also on record: method as in Milligan and Koshland, 1993. The note with it: estimated; ref Milligan and Koshland, 1993; cited from earlier work.
Another data set relates to MCP2983. Also on record: method as in Ni et al., 2015. The note with it: ref Ni et al., 2015; cited from earlier work.
Data set [4] deals with the molecule itself. In words: AUC; sedimentation velocity with saturating quinate or shikimate (400 uM), 40,000 rpm, 10°C, analysis buffer (5 mM PIPES, 5 mM MES, 5 mM Tris-HCl, pH 8.0).
Data set [5] concerns the molecule itself. In words: AUC; multi-speed, multi-wavelength sedimentation equilibrium, ligand-free protein, six concentrations 15-280 uM, 12,000, 14,000 and 18,000 rpm, 10°C, analysis buffer pH 8.0; global fit to a monomer-dimer self-association model (SEDPHAT); dimer to monomers.

The text below walks through data of PMC5449446, “Metabolic Value Chemoattractants Are Preferentially Recognized at Broad Ligand Range Chemoreceptor of Pseudomonas putida KT2440” (Frontiers in Microbiology, 2017).

As usually defined, the Kd is the equilibrium constant for the complex coming apart. In the case of `CC(=O)O` [Acetate], the Kd at McpP was 34 µM; at McpS, 574 µM.
Take `O=C(O)[C@]1(O)C[C@@H](O)[C@@H](O)[C@H](O)C1` [Quinate, quinate]: the “capacity to support growth as sole carbon source” value with P. putida KT2440 is reported as “supported bacterial growth”. At PcaY_PP-LBD [1], the affinity, expressed as Kd, was 3.7 µM; the “∆G” value is -7.40 ± 0.02 kcal/mol; the “∆H” value is on record as -13.2 ± 0.4 kcal/mol. Moreover, the “sedimentation coefficient s20,w of PcaY_PP-LBD in presence of ligand” value on PcaY_PP-LBD [2] is recorded as 3.1 S. For the same molecule, the chemotactic response entry in [3] is given as “very strong responses”.
Regarding `O=C(O)C1=CC(O)C(O)C(O)C1` (stereo not drawn) [Shikimate, shikimate], on PcaY_PP-LBD [1], the Kd worked out at 4.4 µM, the “∆G” value is given as -7.30 ± 0.1 kcal/mol and the “∆H” value is recorded as -16.6 ± 1.1 kcal/mol. Besides, the “sedimentation coefficient s20,w of PcaY_PP-LBD in presence of ligand” value on PcaY_PP-LBD [2] is recorded as 3.1 S. For the same molecule, in data set [3], the chemotactic response entry was “very strong responses”.
As to `N[C@@H](CC(=O)O)C(=O)O` [aspartate], in the data set on Tar-LBD, the “decrease of the dimer self-association constant, factor” value is given as “around 100”.
For `O=C(O)/C=C(/CC(=O)O)C(=O)O` [cis-aconitate], the KD entry on PcaY_PP-LBD [1] (ITC at 25°C, 25 μM protein, One Binding Site model, means and SD of three experiments) is given as “did not show any binding”. For the same molecule, the “binding to recombinant LBD” value in the data set with MCP2983 is recorded as “recognized”.

B1: PcaY_PP-LBD, recombinant ligand binding domain of the PcaY_PP (PP2643) chemoreceptor of Pseudomonas putida KT2440 (domain or fragment, UniProt Q88JK6 44-196, looked up)
chain: GSDQQITELDQTAHQSDRLNNALLMAIRSSANVSSGFIEQLGGHDESAGKRMALSVELNNKSQALVDEFVENAREPALRGLATELQATFAEYAKAVAGQREATRQRSLEQYFKVNSDAGNAMGRLQTLRQQLVTTLSERGQQIMLESDRRLAR
notes: Cloned NdeI/BamHI into pET28b with a stop codon in the reverse primer; No tag removal is described
One may read the stoichiometry N as the number of molecules, sites or subunits per partner or assembly. Turning to B1, the “stoichiometry N” value in data set [4] came out at 2. In data set [5], this molecule returned a Kd of 57.5 µM.
